Patent US6048529A, “PVA or PEG conjugates of peptides for epitope-specific immunosuppression” (priority 1995, dated 2000)
Entries after “also recorded” stand apart in the source; their conditions may differ. Where a SMILES comes first, the peptide text is derived from it. Bridges are numbered along the chain shown (N, C = ends). Where no end group is shown, it is not given here.

How the values were obtained:
[1] = test system: experimental autoimmune myasthenia gravis (EAMG); test: Electrophysiological EAMG: EMG during repetitive nerve stimulation after immunization with Torpedo AChR; assay type: in vivo, C57/BL6 mice; settings: for proportion of mice showing a decremental response greater than 10%: 5 μg i.p. at 11, 7 and 3 days before immunization with Torpedo AChR, EMG on days 38-39
Experimental: Six weeks old C57/BL6 mice were purchased from Charles River Breeding Laboratories (Wilmington, Mass.). Preimmune sera were obtained from the mice for use as controls in subsequent antibody binding assays. […] Then, on day 0, the mice were immunized subcutaneously in one hind footpad and intramuscularly in the same side shoulder with 20 μg of Torpedo AChR in 100 μl emulsion containing equal volumes of complete Freund's adjuvant and PBS. Thirty days later, the mice were immunized with a similar dose of the receptor in the opposite footpad and shoulder. On the 37th day, test bleeds were obtained from the mice for determination of the antibody titers. Electrophysiological studies were performed on the 38th and 39th days. Finally, the mice were sacrificed on the 40th day and lymph node cells were obtained for Electrophysiological Studies To document the electrophysiological evidence of EAMG, amplitudes of serial muscle action potentials were measured by electromyography (EMG) during the repetitive stimulation of the nerve in immunized mice, using the Mystro EMG system (TECA Corporation). A pair of wire electrodes were surgically implanted, encircling the sciatic nerve, two days before EMG. The nerve was stimulated through the implanted electrodes by 3 Hz trains of supramaximal electric current with a duration of 200 microseconds. The corresponding muscle action potentials were recorded with an electrode subcutaneously inserted over the gastrocnemius muscle. A reference electrode was placed at the ankle. Ether inhalation was used during the surgical and recording procedures. […] Students' t-test was used to analyze the differences of amplitude changes between the two groups. A typical myasthenic response of a greater than 10% decrement was considered to constitute an electrophysiological evidence of EAMG. The frequency of electrophysiological EAMG was calculated in each group and analyzed by chi-square test.

peptide α125-148 = test: Radioimmunoassay of anti-AChR antisera: antibody binding to peptide α125-148; assay type: in vivo, C57/BL6 mice; settings: for binding to peptide α125-148 of antibodies in pooled antisera at serial dilutions (in words): pooled antisera of each group, compared with the other groups
Experimental: (§1) Six weeks old C57/BL6 mice were purchased from Charles River Breeding Laboratories (Wilmington, Mass.). Preimmune sera were obtained from the mice for use as controls in subsequent antibody binding assays. After 2-weeks rest, the mice were divided into three groups which received, at eleven, seven and three days before immunization with AChR, an intraperitoneal injection (5 μg in 25 μl of PBS) of either the mPEG-(α125-148) conjugate (Group 1), mPEG-nonsense peptide conjugate (Group 2) or unaltered free peptide α125-148 (Group 3) (FIG. 5). Then, on day 0, the mice were immunized subcutaneously in one hind footpad and intramuscularly in the same side shoulder with 20 μg of Torpedo AChR in 100 μl emulsion containing equal volumes of complete Freund's adjuvant and PBS. Thirty days later, the mice were immunized with a similar dose of the receptor in the opposite footpad and shoulder. On the 37th day, test bleeds were obtained from the mice for determination of the antibody titers. Electrophysiological studies were performed on the 38th and 39th days. Finally, the mice were sacrificed on the 40th day and lymph node cells were obtained for
One mg of the synthetic peptide was dissolved in 50 μl dimethylformamide and then diluted with PBS to 25 μg/ml. A solution of Torpedo AChR in PBS was prepared to contain 2.5 μg/ml. Aliquots (50 μl/well) of the peptide or AChR solutions were added to a 96-well microtiter plate (Falcon Micro Test III flexible assay plate, Becton Dickinson, Oxcard, Calif.) and the plates were incubated at room temperature overnight. After washing 3 times with PBS, the plates were blocked with 0.25% bovine serum albumin (BSA) in PBS (50 μl/well) at 37° C. for 90 minutes. The plates were washed again 5 times with PBS and to each well was added 50 μl of the serum from AChR-immunized mice, pre-diluted with PBS containing 0.10% BSA, and the plates were covered and allowed to stand at room temperature overnight. After 5 washes with PBS, 50 μl of rabbit IgG antibodies (2.5 μg/ml) against mouse IgG and IgM (Accurate Chemical Scientific Corporation, Westbury, N.Y.) was added to each well and the plates were incubated at 37° C. for 3 hours. The plates were then washed 5 times with PBS and ^125 I-labeled protein A (2×10^5 cpm in 50 μl of PBS-0.1% BSA) was added to each well. The plates were incubated for 3 hours at room temperature, after which they were washed and the wells were cut out and counted for bound radioactivity. Pre-immune serum samples, obtained from the mice prior to any experimental treatments, were used as controls to correct for non-specific binding.

whole Torpedo AChR = test: Radioimmunoassay of anti-AChR antisera: antibody binding to whole AChR; assay type: in vivo, C57/BL6 mice; settings: anti-AChR antisera of pretreated mice, versus control groups
Experimental: as §1, with “Finally, the mice were sacrificed on the 40th day and lymph node cells were obtained for” left out
(§2) One mg of the synthetic peptide was dissolved in 50 μl dimethylformamide and then diluted with PBS to 25 μg/ml. […] The plates were incubated for 3 hours at room temperature, after which they were washed and the wells were cut out and counted for bound radioactivity. […]

peptide α45-60 = test: Radioimmunoassay of anti-AChR antisera: antibody binding to peptide α45-60; assay type: in vivo, C57/BL6 mice; settings: anti-AChR antisera of pretreated mice, versus control groups
Experimental: as §1, with “Finally, the mice were sacrificed on the 40th day and lymph node cells were obtained for” left out
as §2

peptide α182-198 = test: Radioimmunoassay of anti-AChR antisera: antibody binding to peptide α182-198; assay type: in vivo, C57/BL6 mice; settings: anti-AChR antisera of pretreated mice, versus control groups
Experimental: as §1, with “Finally, the mice were sacrificed on the 40th day and lymph node cells were obtained for” left out
as §2

lymph node cells (LNC) = test: T cell proliferation assay of lymph node cells from pretreated, AChR-primed mice; assay type: in vivo, C57/BL6 mice; settings: LNC 5×10^5 cells/well from pretreated mice after AChR immunization
Experimental: as §1, with “Thirty days later, the mice were immunized with a similar dose of the receptor in the opposite footpad and shoulder. On the 37th day, test bleeds were obtained from the mice for determination of the antibody titers. Electrophysiological studies were performed on the 38th and 39th days. Finally, the mice were sacrificed on the 40th day and lymph node cells were obtained for” left out
Lymph node cells (LNC) were harvested from the AChR-primed mice of each group ten or eleven days after the last AChR immunization. […] The number of viable cells was determined by vital staining with fluorescein diacetage (Rotman and Papermasters, 1966). […] After incubation for 3 days at 37° C. in a humidified air/CO2 (19:1) atmosphere, the cultures were pulsed (18 hr) with 1 μCi/well [^3 H]-thymidine (Research Products International, Mount Prospect, Ill,) and then harvested on to glass microfiber filters (Whatman, Clinton, N.J.) for counting of radioactivity by liquid scintillation.

[2] = in vivo; cited from earlier work
[3] = anti-AChR antisera of pretreated mice

## mPEG-(α125-148): monomethoxypolyethylene glycol (MW 5000) succinate coupled to the N-terminal α-NH2 of Torpedo californica AChR peptide α125-148 ({mPEG 5000 succinate}-KSYCEIIVTHFPFDQQNCTMKLGI; disulfide 4-18 (inferred); UniProt P02710 149-172, looked up, fragment)
[1]
  proportion of mice showing a decremental response greater than 10%: 20%
[1]; injection before immunization with whole Torpedo AChR
  effect on development of electrophysiological EAMG (in words): suppresses development of electrophysiological EAMG but the suppression was incomplete; also recorded: suppressed the development of electrophysiological EAMG; also recorded: suppressed the development of experimental autoimmune myasthenia gravis (EAMG)
Peptide α125-148; [3]
  antibody response against peptide α125-148 (in words): significantly decreased; also recorded: specific decrease
Peptide α125-148; anti-AChR antisera of pretreated mice, test bleed day 37
  antibody binding to peptide α125-148, mean net cpm±standard deviation: 1414 ±1801 cpm
Peptide α125-148
  binding to peptide α125-148 of antibodies in pooled antisera at serial dilutions (in words): considerably lower antibody binding; also recorded: consistently lower
Whole Torpedo AChR
  antibody response against whole AChR (in words): no significant suppression; also recorded: not significantly different; also recorded: not altered
Peptide α45-60
  antibody response against peptide α45-60 (in words): no significant suppression; also recorded: not significantly different
Peptide α182-198
  antibody response against peptide α182-198 (in words): no significant suppression; also recorded: not significantly different
Lymph node cells (LNC)
  T cell proliferative responses to peptide α125-148, AChR α-chain peptides or whole AChR (in words): did not show meaningful differences; also recorded: not detected; also recorded: no detectable changes

## monomethoxypolyethylene glycol [mPEG]
[2]
  harmful or toxic effects in humans (in words): does not seem to have any harmful or toxic effects

## CC[C@H](C)[C@H](NC(=O)CNC(=O)[C@H](CC(C)C)NC(=O)[C@H](CCCCN)NC(=O)[C@H](CCSC)NC(=O)[C@@H](NC(=O)[C@@H]1CSSC[C@H](NC(=O)[C@H](Cc2ccc(O)cc2)NC(=O)[C@H](CO)NC(=O)[C@@H](N)CCCCN)C(=O)N[C@@H](CCC(=O)O)C(=O)N[C@@H]([C@@H](C)CC)C(=O)N[C@@H]([C@@H](C)CC)C(=O)N[C@@H](C(C)C)C(=O)N[C@@H]([C@@H](C)O)C(=O)N[C@@H](Cc2c[nH]cn2)C(=O)N[C@@H](Cc2ccccc2)C(=O)N2CCC[C@H]2C(=O)N[C@@H](Cc2ccccc2)C(=O)N[C@@H](CC(=O)O)C(=O)N[C@@H](CCC(N)=O)C(=O)N[C@@H](CCC(N)=O)C(=O)N[C@@H](CC(N)=O)C(=O)N1)[C@@H](C)O)C(=O)O [free α125-148, reference compound] (H-KSYCEIIVTHFPFDQQNCTMKLGI-OH; disulfide 4-18)
[1]
  proportion of mice showing a decremental response greater than 10%: 56%
Peptide α125-148; [3]
  antibody response against peptide α125-148 (in words): no decrease
Peptide α125-148
  binding to peptide α125-148 of antibodies in pooled antisera at serial dilutions (in words): consistently greater than the other two controls

## CC[N+](C)(C)c1cccc(O)c1 [edrophonium chloride, reference compound]
[1]; EAMG-positive mouse with -33% decrement, 3 minutes after i.p. injection of 250 μg, 3 Hz stimulation
  decremental amplitude after edrophonium chloride: -13%
[1]; i.p. injection of 250 μg
  effect on the typical myasthenic decremental response (in words): reversible
